Key:
[1] = tested on: CT26-CLDN18.2 syngeneic tumor; assay: CT26-CLDN18.2 syngeneic tumor model, 18B10 and Atezolizumab; type: in vivo, BALB/c mice
Source text: CT26 is synergic mouse tumor model. CT26-CLDN18.2 was purchased from Kyinno (Cat #, KC-1195), which was stalely transfected with human CLDN18.2 expression. The tumor cells were routinely sub-cultured twice weekly by trypsin-EDTA treatment (Hyclone). The cells growing in an exponential growth phase were harvested and counted for tumor inoculation. Female SPF grade BALB/c mice were inoculated with 2×10^6 CT26-CLDN18.2 cells. Animal were selected and randomized to 4 groups (n=8) when tumors grow to 80-120 mm^3. Animals were then treated with either 10 mg/kg Isotype control, 10 mg/kg anti-CLDN18.2 antibody 18B10, 3 mg/kg anti-PD-L1 antibody Atezolizumab, or 10 mg/kg anti-CLDN18.2 antibody 18B10 and 3 mg/kg anti-PD-L1 antibody Atezolizumab twice a week for 3 weeks by i.p. injection. Tumor size was measured twice a week in two dimensions using a caliper (INSIZE) and the volume was expressed in mm^3 using the formula: V=0.5 a×b^2 where a and b are the long and short diameters of the tumor, respectively. Results were analyzed using Prism GraphPad and expressed as mean±S.E.M. Comparisons between two groups were made by T-test, and the difference is considered significant if p is *<0.05 and **<0.01.

[2] = tested on: MC38-CLDN18.2 syngeneic tumor; assay: MC38-CLDN18.2 syngeneic tumor model, 18B10 and Atezolizumab; type: in vivo, C57BL/6 mice
Source text: MC38-CLDN18.2 was purchase from Kyinno (Cat #, KC-1449), which was stable transfected with human CLDN18.2 expression. The tumor cells were routinely sub-culture twice weekly by trypsin-EDTA treatment (Hyclone). The cells growing in an exponential growth phase were harvested and counted for tumor inoculation. Female SPF grade C57BL/6 mice were inoculated with 2×10^6 MC38-CLDN18.2 cells. Animal were selected and randomized to 4 groups (n=6) when tumors grow to 70-100 mm^3. Animals were then treated with 13 mg/kg Isotype control, 10 mg/kg anti-CLDN18.2 antibody 18B10, 3 mg/kg anti-PD-L1 antibody Atezolizumab, 10 mg/kg anti-CLDN18.2 antibody 18B10 and 3 mg/kg anti-PD-L1 antibody Atezolizumab twice a week for 4 weeks by i.p. injection. Tumor size was measured twice a week in two dimensions using a caliper (INSIZE) and the volume was expressed in mm^3 using the formula: V=0.5 a×b^2 where a and b are the long and short diameters of the tumor, respectively. Results were analyzed using Prism GraphPad and expressed as mean±S.E.M. Comparisons between two groups were made by T-test, and the difference is considered significant if p is *<0.05 and **<0.01.

[3] = tested on: CLDN18.2-expressing gastric tumor cell lines NUGC-4, KATOIII and SNU-620; assay: Upregulation of PD-L1 expression on tumor cells by supernatant of target cell/PBMC co-culture, flow cytometry; type: cell-based; conditions: supernatant of target cell + human PBMC (E/T 40:1) with 30 μg/ml 18B10 (S3), or of target cell with 5 ng/ml IFN-γ (S4), 72 h
Protocol: In this assay, three different CLDN18.2-expressing gastric tumor cell lines, NUGC-4 (JCRB, Cat #JCRBB0834), KATOIII (ATCC, Cat #HTB-103) and SNU-620 (Cobioer, Cat #CBP60508), were used as target cell and added to the cell culture plate. No antibody, 30 μg/ml of anti-CLDN18.2 antibody 18B10, 30 μg/ml of isotype control hIgG1 or 5 ng/ml IFN-γ were added into the corresponding wells with the target cell. After the plate was co-cultured at 37° C. for 30 mins, human PBMC as the effector cell was added with a E/T ratio of 40:1. The plate was incubated at 37° C. for 72 hours. At the end of incubation, 100 μl of cell culture supernatant of each well was transferred to another cell culture plate with the same target cell planted. After the second plate was incubated at 37° C. for 72 hours, the target cells were collected and analyzed for PD-L1 expression by flowcytometry using mouse anti-human PD-L1 antibody (BD Pharmingen, Cat #557924). S1 stood for the supernatant of the target cell alone; S2 stood for the supernatant of the target cell and human PBMC with isotype control hIgG1; S3 stood for the supernatant of the target cell and human PBMC with anti-CLDN18.2 antibody 18B10; S4 stood for the supernatant of the target cell with IFN-γ.

[4] = 18B10 10 mg/kg, Atezolizumab 3 mg/kg

Substance	antitumor activity compared with isotype control [1, 4]	TGI ([1]; Day 33, 18B10 10 mg/kg, Atezolizumab 3 mg/kg, i.p. twice a week for 3 weeks)	Tumor size ([1]; Day 33, 18B10 10 mg/kg, Atezolizumab 3 mg/kg, i.p. twice a week for 3 weeks, mean ± S.E.M.)	CR ([1]; Day 33, animals per group)	antitumor activity compared with isotype control [2, 4]	TGI ([2]; Day 51, 18B10 10 mg/kg, Atezolizumab 3 mg/kg, i.p. twice a week for 4 weeks)	Tumor size ([2]; Day 51, 18B10 10 mg/kg, Atezolizumab 3 mg/kg, i.p. twice a week for 4 weeks, mean ± S.E.M.)	CR ([2]; Day 51, animals per group)	PD-L1 expression of target cells compared to S1 group (target cell alone) [3]
Atezolizumab [reference compound]	better antitumor activity compared with treatment with isotype control	71.16%	1350.18 ± 366.69 mm^3	2/8	better antitumor activity compared with treatment with isotype control	71.14%	1154.61 ± 526.35 mm^3	0/6	–
IFN-γ: IFN-γ, 5 ng/ml added to target cells as comparison (S4) [reference compound]	–	–	–	–	–	–	–	–	increased PD-L1 expression

— US20250326834A1, “COMBINATION THERAPY OF CLAUDIN 18.2 ANTAGONIST AND PD-1/PD-L1 AXIS INHIBITOR” (SUZHOU TRANSCENTA THERAPEUTICS CO., LTD., priority 2021, published 2025)
